pIC50: −log10 of the molar value. Active and inactive are the calls of the source. How the calls were made is not given here.

In assay [1] the test system is S. cerevisiae vps1Δ apl2Δ growth inhibition, dose response. The assay is described as follows: vps1Δ apl2Δ double mutant yeast growth inhibitors – S. cerevisiae, background strain comparison, post-Golgi transport modulator project, dose response (AID 788).
The subject of assay [2] is S. cerevisiae wild-type background strain growth inhibition. The assay is described as above. The following applies: S. cerevisiae vps1Δ apl2Δ growth inhibition, dose response; measured here: wild-type background strain growth.

On to `Cc1cc(O)c(/C=N/Nc2ccc(Cl)cc2)c(=O)o1`, for which the pIC50 in assay [1] is 5.48; in assay [2] it was 5.33.
Consider `CCOC(=O)C(NC(C)=O)(Nc1ccc(S(=O)(=O)Nc2onc(C)c2C)cc1)C(F)(F)F` (stereo not given), for which the IC50 in assay [1] was > 10 µM (inactive). Besides, the pIC50 in assay [2] was < 5.00.
For `COc1ccc2nc(NCCCNC(=O)c3cc(OC)c(OC)c(OC)c3)c(C#N)cc2c1` the same measures were > 10 µM (inactive) and < 5.00.
For `O=S(=O)(c1cnccc1N1CCN(/N=C/c2ccc(Br)cc2)CC1)N1CCCCC1` the same measures were > 10 µM (inactive) and < 5.00.
On the same counts, the results for `Cc1ccc(S(=O)(=O)c2c(C)nn(C(C)(C)C)c2OC(=O)c2ccc(Br)o2)cc1` are > 10 µM (inactive) and < 5.00.
Turning to `O=C(C1CCCN(S(=O)(=O)c2ccc(Cl)cc2)C1)N(Cc1cccs1)C1CC1` (stereo not given), in assay [1], the IC50 is > 10 µM (inactive).
For the molecule `CC1CCC(C(C)C)C(OCC(O)CN2CCN(Cc3ccccc3)CC2)C1` (stereo not given), the pIC50 in assay [1] was 5.32.
Consider `CCOCCCNC(=O)c1cc2sc(Cl)cc2n1CC`, for which the IC50 in assay [1] is > 10 µM (inactive). Further, in assay [2], the pIC50 is < 5.00.
Turning to `CCN(CC)C(=O)C1CCN(Cc2ccc(Br)cc2)CC1`, in assay [1], the IC50 was > 10 µM (inactive). Moreover, in assay [2], the pIC50 was < 5.00.
On to `N#Cc1ccccc1Cn1cc(C(=O)c2cccs2)c2ccccc21`, for which the IC50 in assay [1] was > 10 µM (inactive).
With `CCOC(=O)c1ccc(NC(=O)c2ccc(CN3CCOCC3)cc2)cc1`, the values for the negative-log IC50 (pIC50) in assay [1] and in assay [2] were 4.60 and < 5.00, respectively.
Consider `CC(C)Cc1[nH]c(=O)c(C#N)c2c1CCC2`, for which the IC50 in assay [1] is > 10 µM (inactive). In addition, the pIC50 in assay [2] was < 5.00.
On the same counts, the results for `COc1cc2[nH]c(=S)n(CCCN3CCOCC3)c(=O)c2cc1OC` are > 10 µM (inactive) and < 5.00.
For `O=[N+]([O-])c1cc(C(F)(F)F)ccc1N/N=C/c1cc2ccccc2nc1Cl` the same measures were > 10 µM (inactive) and < 5.00.
Consider `O=c1cccc2n1CC1CC2CN(S(=O)(=O)c2ccccc2)C1` (stereo not given), for which, in assay [1], the IC50 was > 10 µM (inactive). Also, the pIC50 in assay [2] is < 5.00.
For `CCSc1nnc(NC(=O)NCC(F)(F)F)s1` the same measures were > 10 µM (inactive) and < 5.00.
On the same counts, the results for `Cc1ccc(C)c(NS(=O)(=O)c2cc(C(=O)N3CCc4ccccc4C3)ccc2Cl)c1` are 8.09 µM (inactive) and 5.16.
On the same counts, the results for `c1ccc(-c2ccc(-c3cnc4n3CCCCC4)cc2)cc1` are > 10 µM (inactive) and < 5.00.
Turning to `COC(=O)c1ccc(NC(=O)c2cn(-c3ccccc3)nc2-c2ccncc2)cc1`, the IC50 in assay [1] is > 10 µM (inactive). Besides, the pIC50 in assay [2] was < 5.00.
For `O=C1C=C(c2ccccc2)C(=O)N1Nc1ccccc1`, the pIC50 in assay [1] is 4.70.
Turning to `CCCCC(c1nnnn1Cc1ccco1)N1CCN(c2nc3ccccc3s2)CC1` (stereo not given), the IC50 in assay [1] was 19.7 µM (inactive). This molecule gave a pIC50 in assay [2] of 5.41.
For the molecule `CCC(OC(=O)C(NC(=O)c1ccccc1)c1ccccc1)C(=O)Nc1cc(C)on1` (stereo not given), the IC50 in assay [1] is > 10 µM (inactive). Besides, the pIC50 in assay [2] was < 5.00.
On the same counts, the results for `OC(c1ccc(Cl)cc1Cl)C(Cc1cccnc1)n1cncn1` (stereo not given) are > 10 µM (inactive) and < 5.00.
As for `Clc1cc(Br)ccc1OCCOCCN1CCOCC1`, the pIC50 in assay [1] is 4.69; in assay [2], < 5.00.
Take `CCN(CC)c1ccc(-c2nc3cnccc3n2C)cc1`: the IC50 in assay [1] was > 10 µM (inactive). Also, the pIC50 in assay [2] was < 5.00.
As to `O=C1OCC2=C1C(c1ccc(F)cc1)Sc1ccccc1N2` (stereo not given), the results for the pIC50 in assay [1] and in assay [2] were 4.62 and < 5.00, respectively.
In assay [2], `O=C(Nc1nnc(-c2ccc(Cl)cc2)o1)c1ccccc1Br` gave a pIC50 of 4.88.
For the molecule `COC(=O)c1ccc(CSc2nnc(NC(C)C)s2)cc1`, the IC50 in assay [1] is > 10 µM (inactive). For the same molecule, the negative logarithm of the IC50 (pIC50) in assay [2] was < 5.00.
In the case of `O=C(CC(=O)c1cc(Cl)ccc1O)c1ccccc1`, the results for the pIC50 in assay [1] and in assay [2] were 5.01 and 4.90, respectively.
In the case of `COc1cccc(NC(=O)C2CCCN2C(=O)OCc2ccccc2)c1` (stereo not given), the IC50 in assay [1] is > 10 µM (inactive). Besides, in assay [2], the pIC50 was < 5.00.
For `O=C(CCC(=O)OCC(=O)c1ccc(F)cc1)NC1CCCCC1` the same measures were > 10 µM (inactive) and < 5.00.
In the case of `O=C(CN1CCN(c2ccccn2)CC1)Nc1ccc(Oc2ccccc2)cc1`, the IC50 in assay [1] was > 10 µM (inactive).
With `Cn1c2ccc(Cl)cc2c2nc3ccccc3nc21`, in assay [1], the IC50 was > 10 µM (inactive). In assay [2], the pIC50 is < 5.00.
On the same counts, the results for `Cc1nc(NC(=O)c2ccccc2)sc1-c1csc(Nc2ccc(F)cc2)n1` are > 10 µM (inactive) and < 5.00.
On the same counts, the results for `Cn1c(=O)cc(NCc2ccccc2)[nH]c1=O` are > 10 µM (inactive) and < 5.00.
On the same counts, the results for `COc1ccc(N2CCN(c3oc(-c4ccco4)nc3C#N)CC2)cc1` are > 10 µM (inactive) and < 5.00.
As to `Cc1nc(NC(=O)c2ccccc2)sc1-c1csc(NCc2ccccc2)n1`, the pIC50 was 5.45 in assay [1] and < 5.00 in assay [2].
For `CCCCC(=O)Nc1nc(C)c(-c2csc(Nc3ccc(Cl)cc3)n2)s1`, the pIC50 in assay [2] was 5.20.
In the case of `CC(Sc1ccsc1[N+](=O)[O-])C(=O)NCCc1ccc(Cl)cc1` (stereo not given), the IC50 in assay [1] was > 10 µM (inactive).
Consider `O=C(c1ccco1)N1CCN=C1SCc1cccnc1`, for which the IC50 in assay [1] is > 10 µM (inactive). The pIC50 in assay [2] was < 5.00.
For `Cc1c(Cc2ccccc2)c(=O)oc2c(C)c(OCc3nn[nH]n3)ccc12` the same measures were > 10 µM (inactive) and < 5.00.
For `Cc1nn(-c2ccccn2)c(C)c1Oc1ccccc1O` the same measures were > 10 µM (inactive) and < 5.00.
For `O=C(Cc1cccs1)Nc1nc2c(s1)CCCC2` the same measures were > 10 µM (inactive) and < 5.00.
On to `Cc1ccc(Cl)c(OCCCCN(C)Cc2ccccc2)c1`, for which the pIC50 in assay [1] is 5.50; in assay [2], < 5.00.
On to `CCCCC1(CCCC)C(=O)NC(=Nc2cccc(C)c2)NC1=O`, for which the IC50 in assay [1] was > 10 µM (inactive). The pIC50 in assay [2] was < 5.00.
In the case of `CC1CCN(S(=O)(=O)c2ccc(NC(=O)CCN3C(=O)c4ccccc4C3=O)cc2)CC1`, the IC50 in assay [1] is > 10 µM (inactive).
Turning to `CC1CC(C)CN(CC(C)(C)NS(=O)(=O)c2ccc(Cl)cc2)C1` (stereo not given), in assay [2], the pIC50 is < 5.00.
Regarding `Cc1cccc(CS(=O)(=O)Cc2ccc(C(=O)NCCCN3CCCC3)o2)c1`, in assay [1], the IC50 is > 10 µM (inactive). Besides, in assay [2], the pIC50 is < 5.00.
On the same counts, the results for `Clc1ccc(-c2n[nH]c3c2CCC3)cc1Cl` are 2.65 µM (inactive) and 5.74.
On the same counts, the results for `O=Cc1cc2ccccc2nc1SCc1ccc(Cl)cc1` are > 10 µM (inactive) and < 5.00.
On the same counts, the results for `CCCC(=O)N1CCN(c2ccc(NC(=O)c3cc4ccccc4o3)cc2Cl)CC1` are 20.8 µM (inactive) and 4.72.
Consider `CCC(C)(C)NC(=O)CN(C(=O)CCC(=O)Nc1ccccn1)c1ccc(F)c(Cl)c1`, for which the IC50 in assay [1] is > 10 µM (inactive). In addition, the pIC50 in assay [2] is < 5.00.
As for `O=S1(=O)C=C(Sc2nc3ccccc3s2)c2ccccc21`, in assay [1], the IC50 is > 10 µM (inactive).
Take `Cc1ccc(C(=O)Nc2ccc(Cc3ccncc3)cc2)cc1[N+](=O)[O-]`: the pIC50 in assay [1] was 4.63.
On the same count and under the same terms, under `O=C(OCn1ncc(Br)c(Br)c1=O)c1ccccc1Cl` stands 4.68.
Take `Cc1cccc(-c2nnc(-c3cccc(NC(=O)Cc4cccs4)c3)o2)c1`: the pIC50 in assay [2] was 4.82.
As for `Cc1[nH]nc(N=CC2=C(O)CC(C)(C)CC2=O)c1-c1ccc(Cl)cc1`, the IC50 in assay [1] is > 10 µM (inactive).
Turning to `Cc1c(Cl)c([N+](=O)[O-])nn1Cc1ccc(C(=O)N/N=C\c2cccc(Br)c2)o1`, in assay [2], the pIC50 is < 5.00.
As for `CCCCCCOc1ccc(CN2CCN(CCO)CC2)cc1`, the pIC50 in assay [1] was 5.28.
As for `CCOc1cc(/C=C\[N+](=O)[O-])ccc1OCC(=O)Nc1ccccc1C`, the pIC50 in assay [2] is < 5.00.
Turning to `CCOc1nc(SCCOc2ccccc2)nc(N(C)C)n1`, the IC50 in assay [1] was > 10 µM (inactive).
For the molecule `O=S(=O)(Cc1ccccc1Cl)N1CCN(Cc2ccc3c(c2)OCO3)CC1`, in assay [1], the pIC50 is 5.00.
`CCOC(=O)C1=C(N)N2C(=O)C(C)SC2=C(C(=O)OC)C1c1ccccc1OC` (stereo not given): the pIC50 in assay [2] is 6.79.
Take `COc1ccc(OCCSc2nnc3sc4ccccc4n23)cc1`: the IC50 in assay [1] is > 10 µM (inactive).
In the case of `C=C(C)COc1ccc(-c2ncncc2Oc2ccc(OC)cc2)c(O)c1`, the pIC50 in assay [2] was < 5.00.
On to `CC(C)c1ccc(C(=O)CSc2n[nH]c(-c3ccncc3)n2)cc1`, for which the pIC50 in assay [1] was 5.25.
Same read-out and setting: under `N=c1c2c(-c3ccccc3)c(-c3ccccc3)n(Cc3ccco3)c2ncn1Cc1ccccc1` stands 4.72.
As for `CC12CCC(c3c(C(=O)Nc4nccs4)nn(-c4ccccc4)c31)C2(C)C` (stereo not given), the IC50 in assay [1] was > 10 µM (inactive).
For `c1ccc2c(c1)oc1c(Nc3ccc(CN4CCOCC4)cc3)ncnc12`, the pIC50 in assay [2] was < 5.00.
Turning to `O=C(NCC1COc2ccccc2O1)c1ccc(Cl)cc1` (stereo not given), in assay [1], the pIC50 was 5.88.
In the case of `O=C(Nc1ccccc1)C1=C(O)CC(c2ccco2)CC1=Nc1ccccc1` (stereo not given), the pIC50 in assay [2] was < 5.00.
As for `O=C(NCC(c1cccnc1)N1CCN(c2ccc(F)cc2)CC1)OCc1ccccc1` (stereo not given), the pIC50 in assay [1] is 4.64.
As for `Cc1cc(NCCCN2CCOCC2)n2ncc(-c3ccc(Cl)cc3)c2n1`, the pIC50 in assay [2] was < 5.00.
As to `O=[N+]([O-])c1cc(Cl)cc(/C=N\Nc2ccccn2)c1O`, in assay [1], the pIC50 was 5.01.
Same read-out and setting: under `CC(c1nnc(SCn2nnc3ccccc3c2=O)n1-c1ccc(Cl)cc1)N(C)C` (stereo not given) stands 5.67.
Still for that read-out and setting: next, `CCOc1ccc(NC(=O)N(C2CCCCC2)C(C)c2cccnc2)cc1` (stereo not given): 4.82.
Turning to `O=C(NC1CCN(Cc2ccccc2)CC1)C1COc2ccccc2O1` (stereo not given), the pIC50 in assay [2] is < 5.00.
On the same count and under the same terms, next, `Cc1nnc(-c2cccc(Br)c2)c2cn(-c3ccccc3)nc12`: < 5.00.

The values above are taken from PubChem BioAssay AID788 (SRMLSC, 2007).
